Source: US11542235B2, “Herbicidal 3-azaspiro[5.5] undecane-8, 10-dione compounds” (SYNGENTA PARTICIPATIONS AG, priority 2018, dated 2023)

Columns and labels:
Type in all cases: in vivo
Lolium perenne (LOLPE) = assay: Glasshouse herbicidal test, pre- and post-emergence, Lolium perenne; settings: 250 g/h, evaluated after 13 days, five point scale; for percentage damage caused to the plant, LOLPE POST: post-emergence; for percentage damage caused to the plant, LOLPE PRE: pre-emergence
Description: (§1) Seeds of a variety of test species are sown in standard soil in pots (Lolium perenne (LOLPE), Setaria faberi (SETFA), Alopecurus myosuroides (ALOMY), Echinochloa crus-galli (ECHCG), Avena fatua (AVEFA)). After cultivation for one day (pre-emergence) or after 8 days cultivation (post-emergence) under controlled conditions in a glasshouse (at 24/16° C., day/night; 14 hours light; 65% humidity), the plants are sprayed with an aqueous spray solution derived from the formulation of the technical active ingredient in acetone/water (50:50) solution containing 0.5% Tween 20 (polyoxyethelyene sorbitan monolaurate, CAS RN 9005-64-5). Compounds are applied at […]. The test plants are then grown in a glasshouse under controlled conditions in a glasshouse (at 24/16° C., day/night; 14 hours light; 65% humidity) and watered twice daily. After 13 days for pre and post-emergence, the test is evaluated for the percentage damage caused to the plant. The biological activities are shown in the following table on a five point scale (5=80-100%; 4=60-79%; 3=40-59%; 2=20-39%; 1=0-19%).

Setaria faberi (SETFA) = assay: Glasshouse herbicidal test, pre- and post-emergence, Setaria faberi; settings: 250 g/h, evaluated after 13 days, five point scale; for percentage damage caused to the plant, SETFA PRE: pre-emergence; for percentage damage caused to the plant, SETFA POST: post-emergence
Description: as §1

[1] = test system: Alopecurus myosuroides (ALOMY); assay: Glasshouse herbicidal test, pre- and post-emergence, Alopecurus myosuroides; settings: 250 g/h, evaluated after 13 days, five point scale; for percentage damage caused to the plant, ALOMY POST: post-emergence; for percentage damage caused to the plant, ALOMY PRE: pre-emergence
Description: as §1

[2] = test system: Echinochloa crus-galli (ECHCG); assay: Glasshouse herbicidal test, pre- and post-emergence, Echinochloa crus-galli; settings: 250 g/h, evaluated after 13 days, five point scale; for percentage damage caused to the plant, ECHCG POST: post-emergence; for percentage damage caused to the plant, ECHCG PRE: pre-emergence
Description: as §1

Avena fatua (AVEFA) [3] = assay: Glasshouse herbicidal test, pre- and post-emergence, Avena fatua; settings: 250 g/h, evaluated after 13 days, five point scale; for percentage damage caused to the plant, AVEFA POST: post-emergence; for percentage damage caused to the plant, AVEFA PRE: pre-emergence
Description: as §1

wheat = assay: Post-emergence crop phytotoxicity, wheat, with or without safener CQC
Description: as §1
(§2) Using procedures outlines above, wheat and barley crop plants are treated, along with two weed species Avena fatua (AVEFA) and Lolium multiflorum (LOLPE) post-emergence with compound A2 of the present invention or comparator compound C1 (Compound A-38 from WO2014/096289) at the application rates indicated. The compounds were also applied in conjunction with the safener compound cloquintocet-mexyl (CQC) at 50 g/ha.

barley = assay: Post-emergence crop phytotoxicity, barley, with or without safener CQC
Description: as §1, §2

Avena fatua (AVEFA) [4] = assay: Post-emergence weed phytotoxicity, Avena fatua, with or without safener CQC
Description: as §1, §2

Lolium multiflorum = assay: Post-emergence weed phytotoxicity, Lolium multiflorum, with or without safener CQC
Description: as §1, §2

[5] = 60 g/ha + safener cloquintocet-mexyl (CQC) at 50 g/ha

| SMILES | percentage damage caused to the plant, LOLPE POST (Lolium perenne (LOLPE)) | percentage damage caused to the plant, LOLPE PRE (Lolium perenne (LOLPE)) | percentage damage caused to the plant, SETFA PRE (Setaria faberi (SETFA)) | percentage damage caused to the plant, ALOMY POST [1] | percentage damage caused to the plant, ALOMY PRE [1] | percentage damage caused to the plant, ECHCG POST [2] | percentage damage caused to the plant, ECHCG PRE [2] | percentage damage caused to the plant, AVEFA POST (Avena fatua (AVEFA) [3]) | percentage damage caused to the plant, AVEFA PRE (Avena fatua (AVEFA) [3]) | % phytotoxicity, Wheat (wheat; 30 g/ha) [%] | % phytotoxicity, Wheat (wheat; 60 g/ha) [%] | % phytotoxicity, Wheat (wheat; [5]) [%] | % phytotoxicity, Barley (barley; 30 g/ha) [%] | % phytotoxicity, Barley (barley; 60 g/ha) [%] | % phytotoxicity, Barley (barley; [5]) [%] | % phytotoxicity, AVENA (Avena fatua (AVEFA) [4]; 30 g/ha) [%] | % phytotoxicity, AVENA (Avena fatua (AVEFA) [4]; 60 g/ha) [%] | % phytotoxicity, AVENA (Avena fatua (AVEFA) [4]; [5]) [%] | % phytotoxicity, LOLMU (Lolium multiflorum; 30 g/ha) [%] | percentage damage caused to the plant, SETFA POST (Setaria faberi (SETFA)) | other results |
| --- | --- | --- | --- | --- | --- | --- | --- | --- | --- | --- | --- | --- | --- | --- | --- | --- | --- | --- | --- | --- | --- |
| CC#Cc1cc(C)c(C2C(=O)CC3(CCN(C(C)=O)CC3)CC2=O)c(C)c1 [Compound A2, 3-acetyl-9-(2,6-dimethyl-4-prop-1-ynyl-phenyl)-3-azaspiro[5.5]undecane-8,10-dione] | 5 (5=80-100%) | 5 (5=80-100%) | 5 (5=80-100%) | 5 (5=80-100%) | 5 (5=80-100%) | 5 (5=80-100%) | 5 (5=80-100%) | 5 (5=80-100%) | 5 (5=80-100%) | 5 | 15 | 5 | 0 | 15 | 0 | 75 | 92 | 92 | 98 | – | damage to the wheat crop compared to prior art compound C1 (wheat; rates of Table B2): significantly less damaging; damage to the barley crop compared to prior art compound C1 (barley; rates of Table B2): significantly less damaging; % phytotoxicity, LOLMU (Lolium multiflorum; 60 g/ha): 100%; % phytotoxicity, LOLMU (Lolium multiflorum; [5]): 100% |
| CC#Cc1cc(C)c(C2C(=O)CC3(CCOCC3)CC2=O)c(C)c1 [Compound C1, reference compound] | – | – | – | – | – | – | – | – | – | 25 | 75 | 50 | 5 | 90 | 18 | 65 | 90 | 80 | 98 | – | % phytotoxicity, LOLMU (Lolium multiflorum; 60 g/ha): 100%; % phytotoxicity, LOLMU (Lolium multiflorum; [5]): 100% |
| CC#Cc1cc(C)c(C2=C(OC(=O)Oc3ccccc3)CC3(CCN(C(C)=O)CC3)CC2=O)c(C)c1 [Compound P9] | 5 (5=80-100%) | 5 (5=80-100%) | 5 (5=80-100%) | 5 (5=80-100%) | 5 (5=80-100%) | – | 5 (5=80-100%) | 5 (5=80-100%) | 5 (5=80-100%) | – | – | – | – | – | – | – | – | – | – | 5 (5=80-100%) | – |
| CC#Cc1cc(C)c(C2=C(OC(=O)OC(C)C)CC3(CCN(C(C)=O)CC3)CC2=O)c(C)c1 [Compound P10] | 5 (5=80-100%) | 5 (5=80-100%) | 5 (5=80-100%) | 5 (5=80-100%) | 5 (5=80-100%) | 5 (5=80-100%) | 5 (5=80-100%) | 5 (5=80-100%) | 5 (5=80-100%) | – | – | – | – | – | – | – | – | – | – | 5 (5=80-100%) | – |
| CC#Cc1cc(C)c(C2=C(OC(=O)C(C)(C)C)CC3(CCN(C(C)=O)CC3)CC2=O)c(C)c1 [Compound P11] | 5 (5=80-100%) | 5 (5=80-100%) | 5 (5=80-100%) | 5 (5=80-100%) | 5 (5=80-100%) | 5 (5=80-100%) | 5 (5=80-100%) | 5 (5=80-100%) | 5 (5=80-100%) | – | – | – | – | – | – | – | – | – | – | 5 (5=80-100%) | – |
| CC#Cc1cc(C)c(C2=C(OC(=O)C(C)C)CC3(CCN(C(C)=O)CC3)CC2=O)c(C)c1 [Compound P12] | 5 (5=80-100%) | 5 (5=80-100%) | 5 (5=80-100%) | 5 (5=80-100%) | 5 (5=80-100%) | 5 (5=80-100%) | 5 (5=80-100%) | 5 (5=80-100%) | 5 (5=80-100%) | – | – | – | – | – | – | – | – | – | – | 5 (5=80-100%) | – |
